Entries after “also recorded” stand apart in the source; their conditions may differ.
Key:
[1] = intravenous NTG, human; cited from earlier work
[2] = test system: cerebral cortical infarct (rat pups); assay: Bilateral carotid ligation plus hypoxia stroke model in rat pups pretreated with NTG patches; assay type: in vivo
Method: Rat pups were treated with nitroglycerin (NTG) approximately for 36-48 hours before performing bilateral carotid ligations. The dosing regimen for the 3 groups of rat pups used to generate the data was as follows.
Hair was removed from the abdominal region of the rat pup using a razor. One-quarter of a NTG patch (Minitran) was applied to the shaved area. A quarter patch of this size corresponds to a dose of 0.6 mg/24 hours (whole patch 2.4 mg/24 hr). Between 12 and 16 hours later, another quarter-patch was applied to the rat's abdomen, leaving the first on. This procedure was again repeated 12-16 hours later. Each rat pup received 3 or 4 quarter patches before surgery, which was performed two days later and consisted of bilateral carotid ligation followed by hypoxia to induce a stroke.
Using this procedure of inducing NTG systemic tolerance, the following results were obtained: In the control group, 7/11 (64%) of the animals suffered large ([…]) cerebral cortical infarcts. In contrast, in the NTG-treated group, only 2/13 (15%) of the animals had any discernible cerebral infarct at all (P<0.03 by Fisher's exact test).
Animals are operated on (to induce a stroke) approximately 48 hr after the initial administration of NTG patches.

[3] = test system: cortical neurons (NMDA receptor-mediated neurotoxicity); assay: Neurotoxicity assay: survival of cortical neurons after DTT and NMDA exposure; assay type: cell-based, rat; conditions: NTG 100 μM (30 μM NMDA, 30 min); SNP 400 μM (75 μM NMDA, 5 min); FIGS. 6A and 6B
Method: To test compounds for their ability to prevent neurotoxicity, neuronal cell death may be assayed as follows. […] The candidate compound is tested by addition (e.g., in a series of concentrations ranging from 0.1 nM-10 mM) after DTT treatment but before NMDA treatment. The candidate compound can be added for minutes, hours, or even days prior to its washout period. […] Neuronal cultures are scored for cell survival after this overnight incubation because NMDA toxicity is often delayed by several hours following NMDA exposure.
Using the neurotoxicity assay described above, the compounds sodium nitroprusside and nitroglycerin were tested individually for their ability to increase survival of neonatal cortical neurons.
As shown in FIG. 6A-6D, surviving neurons are expressed as the percentage of viable neurons in the control culture dishes in the same experiment. The concentrations of drugs were as follows: APV (2 mM), NTG (100 μM), SNP (400 μM), DTT (0.5-2 mM), and reduced Hb (500 μM). […] Values are mean ±SEM for experiments run in triplicate on sibling cultures on separate days (total of 32 experiments). Astericks indicate significant difference compared with the value for DTT-NMDA exposure, P<0.05 (ANOVA followed by Scheffe multiple comparison of means.

[4] = Development of tolerance to systemic effects of NTG in humans; assay type: in vivo, human
From the text: Therefore, it is advantageous to induce NTG tolerance by gradually increasing dosage, thus increasing the neuronal protective effect.
To illustrate the development of systemic tolerance, a human patient could be made tolerant by intravenous administration of NTG within 18-24 hr of continuous infusion (see for example, J. E. Shaffer, B. -A. Han, W. H. Chern, and F. W. Lee, J. Pharmacol. Exper. Therap., 1992;260:286-293; D. C. May, J. J. Popma, Wh. H. Black, S. Scahaffer, H. R. Lee, B. D. Levine, and L. D. Hillis, New Engl. J. Med. 1987;317:805-809; C. M. Newman, J. B. Warren, G. W. Taylor, A. R. Boobis, and D. S. Davis, Br. J. Pharmacol. 1990;99:825-829). Oral, nasal spray, or sublingual NTG could also be used to induce systemic tolerance.
Another, perhaps easier, method for making humans tolerant within 24 hours to the systemic effects of NTG is to administer nitroglycerin as nitropaste or as a transdermal patch for transdermal delivery, for instance, as follows: 1/2inch every 4 to 6 hours, while monitoring the blood pressure (to see when hypotension subsides from the applied nitropaste). As tolerated (e.g., in the absence of sudden drops in blood pressure), the dose of nitropaste is increased to up to 3 inches with each administration. Under these conditions, tolerance (as evidenced by no effect on systemic blood pressure) will develop in 18-24 hours or less. […]

[5] = test system: NMDA receptor (cortical neurons); assay: Patch-clamp recording of NMDA-evoked current in cortical neurons; assay type: cell-based, rat (Sprague-Dawley)

For `O=[N+]([O-])OCC(CO[N+](=O)[O-])O[N+](=O)[O-]` [NTG, 1,2,3-propanetriol trinitrate], the “Time to systemic tolerance, intravenous continuous infusion” value [1] is given as 18 to 24 h, the “Animals with any discernible cerebral infarct (number/total)” value ([2]; NTG patches approx. 36-48 h before bilateral carotid ligation, control 7/11 (64%) large infarcts, P<0.03 Fisher's exact test) is given as 2/13 and the “Animals with any discernible cerebral infarct (percent)” value ([2]; NTG patches approx. 36-48 h before bilateral carotid ligation, control 64%, P<0.03) is given as 15%. For the same molecule, the Cerebral protection ([2]; NTG transdermal patches, tolerance-inducing procedure) was “cerebral protective”, the “Effect on neuronal injury engendered by NMDA after exposure to DTT” value [3] was “ameliorated neuronal injury” and the “Time to systemic tolerance, nitropaste or transdermal patch” value ([4]; no effect on systemic blood pressure, nitropaste dose escalated up to 3 inches, "will develop in 18-24 hours or less") was 18 to 24 h. For the same molecule, the “Tolerance to undesired systemic effects” value ([4]; systemic effects e.g. blood pressure drop, coronary artery dilation or headache) was “patients can be made tolerant to the undesired systemic effects of NTG”, the “Effect on NMDA-evoked current” value ([5]; 50 μM NMDA + 1 μM glycine, -60 mV, DTT 2 mM, NTG 500 μM, DTNB 500 μM, 2 min exposure, washout, FIG. 4) was “attenuated; also recorded: inhibited the responses” and the “Effect on amplitude of NMDA evoked current following alkylation with NEM” value ([5]; after 1-5 mM NEM) was “neither NTG nor DTNB significantly affected the amplitude of NMDA evoked current”.

Reference: patent publication US5747545A, “Method of preventing NMDA receptor complex-mediated Neuronal damage” (priority 1995, dated 1998)
